From the kinase profiling compilation of Christmann-Franck et al. (2016)

What was measured:
Test in all cases: radiometric filter-binding kinase assay
[1] = molecular target: IGF1R (human) (UniProt P08069)
[2] = molecular target: ULK2 (human) (UniProt Q8IYT8)
[3] = molecular target: AURKA (human) (UniProt O14965)
[4] = molecular target: IKBKE (human) (UniProt Q14164)
[5] = molecular target: CLK2 (human) (UniProt P49760)
[6] = molecular target: MAPK15 (human) (UniProt Q8TD08)
[7] = molecular target: MAPK10 (human) (UniProt P53779)
[8] = molecular target: PIM3 (human) (UniProt Q86V86)
[9] = molecular target: CDK2 CCNA2 (human) (UniProt P20248+P24941)
[10] = molecular target: SYK (human) (UniProt P43405)
[11] = molecular target: RIPK2 (human) (UniProt O43353); conditions: compound 1.0 µM
[12] = molecular target: ZAP70 (human) (UniProt P43403)
[13] = molecular target: SIK3 (human) (UniProt Q9Y2K2)
[14] = molecular target: PRKCZ (human) (UniProt Q05513)
[15] = molecular target: MARK1 (human) (UniProt Q9P0L2)
[16] = molecular target: MAP4K5 (human) (UniProt Q9Y4K4)
[17] = molecular target: MAP4K3 (human) (UniProt Q8IVH8); conditions: compound 1.0 µM
[18] = molecular target: GCK (human) (UniProt Q12851)
[19] = molecular target: PLK1 (human) (UniProt P53350)
[20] = molecular target: MKNK2 (human) (UniProt Q9HBH9)
[21] = molecular target: MAP3K9 (human) (UniProt P80192)
[22] = molecular target: YES1 (human) (UniProt P07947); conditions: compound 10.0 µM
[23] = molecular target: PRKCA (human) (UniProt P17252)
[24] = molecular target: PRKAA1 PRKAB2 PRKAG1 (human) (UniProt O43741+Q13131+P54619)
[25] = molecular target: MAPK1 (human) (UniProt P28482)
[26] = molecular target: PRKACA (human) (UniProt P17612)
[27] = molecular target: STK16 (human) (UniProt O75716)
[28] = molecular target: MAP3K7 (human) (UniProt O43318)
[29] = molecular target: TESK1 (human) (UniProt Q15569)
[30] = molecular target: TTK (human) (UniProt P33981)
[31] = molecular target: GSK3B (human) (UniProt P49841)
[32] = molecular target: FLT1 (human) (UniProt P17948); conditions: compound 1.0 µM

AURKA (human), sequence (O14965 whole entry, looked up): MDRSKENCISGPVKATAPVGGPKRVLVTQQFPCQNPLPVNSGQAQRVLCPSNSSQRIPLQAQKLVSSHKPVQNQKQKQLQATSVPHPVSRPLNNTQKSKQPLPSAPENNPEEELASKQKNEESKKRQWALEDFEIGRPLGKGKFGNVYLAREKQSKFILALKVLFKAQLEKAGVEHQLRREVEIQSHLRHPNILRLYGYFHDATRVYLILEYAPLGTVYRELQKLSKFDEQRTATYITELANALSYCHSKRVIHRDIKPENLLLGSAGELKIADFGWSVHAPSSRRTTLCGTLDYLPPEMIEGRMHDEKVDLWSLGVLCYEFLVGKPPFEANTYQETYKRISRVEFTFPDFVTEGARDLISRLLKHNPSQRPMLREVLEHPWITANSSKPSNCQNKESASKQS
SIK3 (human), sequence (Q9Y2K2 whole entry, looked up): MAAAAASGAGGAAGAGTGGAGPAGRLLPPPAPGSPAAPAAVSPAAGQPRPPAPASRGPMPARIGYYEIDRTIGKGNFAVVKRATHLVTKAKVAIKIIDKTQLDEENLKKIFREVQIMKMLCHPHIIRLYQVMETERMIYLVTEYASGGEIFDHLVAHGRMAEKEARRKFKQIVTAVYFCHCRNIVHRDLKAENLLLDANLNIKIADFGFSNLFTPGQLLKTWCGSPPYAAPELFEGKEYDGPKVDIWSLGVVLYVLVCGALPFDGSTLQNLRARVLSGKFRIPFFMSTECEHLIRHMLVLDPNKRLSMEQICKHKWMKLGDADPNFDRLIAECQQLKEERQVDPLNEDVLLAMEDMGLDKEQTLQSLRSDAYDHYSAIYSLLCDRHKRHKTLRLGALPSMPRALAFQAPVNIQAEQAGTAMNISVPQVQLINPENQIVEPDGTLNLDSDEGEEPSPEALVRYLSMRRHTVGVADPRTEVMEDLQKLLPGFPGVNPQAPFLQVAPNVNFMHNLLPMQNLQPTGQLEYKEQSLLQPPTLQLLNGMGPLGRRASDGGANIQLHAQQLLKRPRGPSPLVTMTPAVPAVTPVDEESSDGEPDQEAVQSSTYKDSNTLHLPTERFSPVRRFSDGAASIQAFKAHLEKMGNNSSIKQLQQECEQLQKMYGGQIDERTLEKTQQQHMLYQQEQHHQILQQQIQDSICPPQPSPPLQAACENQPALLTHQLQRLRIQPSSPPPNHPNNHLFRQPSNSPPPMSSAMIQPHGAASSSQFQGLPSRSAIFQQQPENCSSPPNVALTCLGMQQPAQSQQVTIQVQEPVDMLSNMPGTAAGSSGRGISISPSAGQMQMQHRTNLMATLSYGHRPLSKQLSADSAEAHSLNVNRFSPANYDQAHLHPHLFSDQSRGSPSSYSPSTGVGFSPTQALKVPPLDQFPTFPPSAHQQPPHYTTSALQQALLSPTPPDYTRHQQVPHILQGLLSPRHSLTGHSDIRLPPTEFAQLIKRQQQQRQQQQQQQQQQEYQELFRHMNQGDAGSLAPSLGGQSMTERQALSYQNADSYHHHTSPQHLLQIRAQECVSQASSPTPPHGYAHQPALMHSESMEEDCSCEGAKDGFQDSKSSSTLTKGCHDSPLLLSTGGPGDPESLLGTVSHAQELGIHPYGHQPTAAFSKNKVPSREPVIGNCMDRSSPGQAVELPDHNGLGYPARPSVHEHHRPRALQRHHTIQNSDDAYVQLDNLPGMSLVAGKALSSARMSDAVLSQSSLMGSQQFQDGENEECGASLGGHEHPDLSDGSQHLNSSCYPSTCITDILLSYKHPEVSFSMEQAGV
TESK1 (human), sequence (Q15569 whole entry, looked up): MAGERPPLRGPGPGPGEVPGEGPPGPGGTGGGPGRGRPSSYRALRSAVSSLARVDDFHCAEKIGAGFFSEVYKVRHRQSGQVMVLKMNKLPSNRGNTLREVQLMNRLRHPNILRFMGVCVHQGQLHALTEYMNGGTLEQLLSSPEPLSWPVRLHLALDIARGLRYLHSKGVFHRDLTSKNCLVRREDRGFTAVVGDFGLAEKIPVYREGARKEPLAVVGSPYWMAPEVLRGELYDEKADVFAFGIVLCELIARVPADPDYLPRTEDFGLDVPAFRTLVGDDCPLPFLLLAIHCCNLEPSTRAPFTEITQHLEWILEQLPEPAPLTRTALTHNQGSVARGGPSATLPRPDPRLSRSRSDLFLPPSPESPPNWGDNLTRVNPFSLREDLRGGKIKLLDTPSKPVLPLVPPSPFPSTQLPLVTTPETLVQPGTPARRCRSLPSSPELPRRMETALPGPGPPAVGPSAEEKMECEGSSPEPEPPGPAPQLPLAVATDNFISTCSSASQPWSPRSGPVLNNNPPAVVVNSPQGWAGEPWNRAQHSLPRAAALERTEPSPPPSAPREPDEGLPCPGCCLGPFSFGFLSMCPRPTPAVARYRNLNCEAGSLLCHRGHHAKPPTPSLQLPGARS
MAPK10 (human), sequence (P53779 whole entry, looked up): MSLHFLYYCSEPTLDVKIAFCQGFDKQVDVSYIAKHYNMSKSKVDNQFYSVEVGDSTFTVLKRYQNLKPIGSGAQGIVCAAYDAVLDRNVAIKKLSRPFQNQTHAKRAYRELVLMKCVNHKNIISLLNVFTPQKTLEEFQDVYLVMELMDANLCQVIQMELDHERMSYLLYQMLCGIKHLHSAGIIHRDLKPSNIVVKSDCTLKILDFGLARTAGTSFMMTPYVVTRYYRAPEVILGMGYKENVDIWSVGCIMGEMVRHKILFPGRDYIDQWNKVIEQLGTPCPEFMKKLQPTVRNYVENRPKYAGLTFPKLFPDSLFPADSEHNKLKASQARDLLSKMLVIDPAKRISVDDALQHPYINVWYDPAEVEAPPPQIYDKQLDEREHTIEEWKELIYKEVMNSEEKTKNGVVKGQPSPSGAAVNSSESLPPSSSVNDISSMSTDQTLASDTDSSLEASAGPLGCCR
MARK1 (human), sequence (Q9P0L2 whole entry, looked up): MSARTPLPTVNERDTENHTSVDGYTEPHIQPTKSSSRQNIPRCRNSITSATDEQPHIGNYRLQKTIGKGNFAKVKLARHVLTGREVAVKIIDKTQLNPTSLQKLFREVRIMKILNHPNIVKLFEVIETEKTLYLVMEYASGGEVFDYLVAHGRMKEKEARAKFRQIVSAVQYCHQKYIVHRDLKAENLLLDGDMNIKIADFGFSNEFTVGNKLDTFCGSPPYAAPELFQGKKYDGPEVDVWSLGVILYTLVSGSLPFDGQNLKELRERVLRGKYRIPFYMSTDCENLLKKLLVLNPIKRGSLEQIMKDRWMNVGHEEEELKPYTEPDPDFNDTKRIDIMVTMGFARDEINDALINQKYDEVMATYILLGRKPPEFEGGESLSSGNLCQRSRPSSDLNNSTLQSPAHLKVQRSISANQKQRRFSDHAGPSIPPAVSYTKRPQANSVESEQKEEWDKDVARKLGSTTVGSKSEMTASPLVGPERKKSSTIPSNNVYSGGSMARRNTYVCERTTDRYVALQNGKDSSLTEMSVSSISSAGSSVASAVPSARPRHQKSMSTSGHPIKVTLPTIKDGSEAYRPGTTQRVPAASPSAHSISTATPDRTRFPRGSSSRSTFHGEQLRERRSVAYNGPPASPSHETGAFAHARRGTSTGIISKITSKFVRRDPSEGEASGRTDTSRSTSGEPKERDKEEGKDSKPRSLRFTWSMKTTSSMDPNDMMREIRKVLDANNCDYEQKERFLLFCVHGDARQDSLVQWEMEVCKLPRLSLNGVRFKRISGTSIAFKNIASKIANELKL
MAP3K7 (human), sequence (O43318 whole entry, looked up): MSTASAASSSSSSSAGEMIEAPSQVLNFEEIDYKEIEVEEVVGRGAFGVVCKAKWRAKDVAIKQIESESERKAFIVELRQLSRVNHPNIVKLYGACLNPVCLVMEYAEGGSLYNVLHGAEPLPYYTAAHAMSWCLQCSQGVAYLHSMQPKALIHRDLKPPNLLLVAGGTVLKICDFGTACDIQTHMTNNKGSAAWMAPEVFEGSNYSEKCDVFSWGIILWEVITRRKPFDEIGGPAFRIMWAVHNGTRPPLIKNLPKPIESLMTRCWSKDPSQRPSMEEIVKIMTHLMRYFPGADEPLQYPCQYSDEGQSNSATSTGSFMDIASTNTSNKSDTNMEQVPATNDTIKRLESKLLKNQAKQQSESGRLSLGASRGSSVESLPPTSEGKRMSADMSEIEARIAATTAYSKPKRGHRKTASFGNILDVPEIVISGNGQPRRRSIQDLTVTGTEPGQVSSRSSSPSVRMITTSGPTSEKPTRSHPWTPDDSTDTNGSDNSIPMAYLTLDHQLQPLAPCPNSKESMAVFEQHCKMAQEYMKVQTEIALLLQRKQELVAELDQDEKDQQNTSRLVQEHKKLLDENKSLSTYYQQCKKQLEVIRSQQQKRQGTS
IKBKE (human), sequence (Q14164 whole entry, looked up): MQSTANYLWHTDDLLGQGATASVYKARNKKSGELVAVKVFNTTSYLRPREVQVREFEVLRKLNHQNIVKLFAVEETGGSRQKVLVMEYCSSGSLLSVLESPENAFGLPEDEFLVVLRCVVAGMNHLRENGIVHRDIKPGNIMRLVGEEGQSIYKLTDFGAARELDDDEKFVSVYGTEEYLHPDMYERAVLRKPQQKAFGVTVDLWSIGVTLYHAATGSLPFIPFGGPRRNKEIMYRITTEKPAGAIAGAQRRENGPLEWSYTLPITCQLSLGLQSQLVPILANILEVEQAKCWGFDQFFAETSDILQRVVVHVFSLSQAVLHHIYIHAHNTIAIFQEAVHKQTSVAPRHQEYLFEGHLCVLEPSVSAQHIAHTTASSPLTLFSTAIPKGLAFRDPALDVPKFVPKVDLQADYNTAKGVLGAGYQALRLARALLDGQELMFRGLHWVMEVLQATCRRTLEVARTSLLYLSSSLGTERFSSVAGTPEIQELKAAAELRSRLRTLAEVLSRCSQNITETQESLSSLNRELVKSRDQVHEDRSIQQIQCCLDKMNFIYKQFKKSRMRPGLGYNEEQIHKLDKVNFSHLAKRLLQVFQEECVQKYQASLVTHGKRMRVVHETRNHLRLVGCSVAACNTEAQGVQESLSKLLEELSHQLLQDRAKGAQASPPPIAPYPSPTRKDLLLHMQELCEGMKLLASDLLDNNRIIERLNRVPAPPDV

CNc1nc(Nc2ccc(C(=O)N3CCOCC3)cc2OC)ncc1Cl
residual activity ([1]; compound 1.0 µM): 100%
residual activity ([1]; compound 10.0 µM): 51%
residual activity ([2]; compound 1.0 µM): 97%
residual activity ([2]; compound 10.0 µM): 84%
residual activity ([3]; compound 1.0 µM): 56%
residual activity ([3]; compound 10.0 µM): 45%
residual activity ([4]; compound 1.0 µM): 77%
residual activity ([4]; compound 10.0 µM): 75%
residual activity ([5]; compound 1.0 µM): 91%
residual activity ([5]; compound 10.0 µM): 76%
residual activity ([6]; compound 1.0 µM): 74%
residual activity ([6]; compound 10.0 µM): 82%
residual activity ([7]; compound 1.0 µM): 60%
residual activity ([7]; compound 10.0 µM): 29%
residual activity ([8]; compound 1.0 µM): 77%
residual activity ([8]; compound 10.0 µM): 72%
residual activity ([9]; compound 1.0 µM): 82%
residual activity ([9]; compound 10.0 µM): 65%
residual activity ([10]; compound 1.0 µM): 68%
residual activity ([10]; compound 10.0 µM): 85%
residual activity [11]: 79%
residual activity ([12]; compound 1.0 µM): 97%
residual activity ([12]; compound 10.0 µM): 81%
residual activity ([13]; compound 1.0 µM): 93%
residual activity ([13]; compound 10.0 µM): 82%
residual activity ([14]; compound 1.0 µM): 99%
residual activity ([14]; compound 10.0 µM): 101%
residual activity ([15]; compound 1.0 µM): 91%
residual activity ([15]; compound 10.0 µM): 84%
residual activity ([16]; compound 1.0 µM): 83%
residual activity ([16]; compound 10.0 µM): 82%
residual activity [17]: 94%
residual activity ([18]; compound 1.0 µM): 108%
residual activity ([18]; compound 10.0 µM): 79%
residual activity ([19]; compound 1.0 µM): 97%
residual activity ([19]; compound 10.0 µM): 105%
residual activity ([20]; compound 1.0 µM): 20%
residual activity ([20]; compound 10.0 µM): 7%
residual activity ([21]; compound 1.0 µM): 38%
residual activity ([21]; compound 10.0 µM): 18%
residual activity [22]: 90%
residual activity ([23]; compound 1.0 µM): 66%
residual activity ([23]; compound 10.0 µM): 87%
residual activity ([24]; compound 1.0 µM): 91%
residual activity ([24]; compound 10.0 µM): 71%
residual activity ([25]; compound 1.0 µM): 79%
residual activity ([25]; compound 10.0 µM): 69%
residual activity ([26]; compound 1.0 µM): 85%
residual activity ([26]; compound 10.0 µM): 94%
residual activity ([27]; compound 1.0 µM): 100%
residual activity ([27]; compound 10.0 µM): 97%
residual activity ([28]; compound 1.0 µM): 74%
residual activity ([28]; compound 10.0 µM): 25%
residual activity ([29]; compound 1.0 µM): 90%
residual activity ([29]; compound 10.0 µM): 83%
residual activity ([30]; compound 1.0 µM): 71%
residual activity ([30]; compound 10.0 µM): 57%
residual activity ([31]; compound 1.0 µM): 100%
residual activity ([31]; compound 10.0 µM): 98%
residual activity [32]: 65%
